# In ChEMBL document CHEMBL1201862, “PubChem BioAssay data set” (2004):
# Activity calls are given as the source filed them.
# Tests used:
# [1] = target: Kallikrein-7 (Homo sapiens, UniProt P49862); experiment: Fluorescence Intensity-based biochemical primary high throughput dose response assay to identify activators of kallikrein-7 (K7) zymogen.
# [2] = target: Induced myeloid leukemia cell differentiation protein Mcl-1 (Homo sapiens, UniProt Q07820); assay type: functional
# [3] = inhibitors of clade B AD8 Env fusion, dose response, cell-based, cherry-pick (AID 652062); assay type: functional;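 also: luciferase signal from cell-cell fusion driven by HIV-1 clade B AD8 Env; potency is for inhibitors of fusion seen as a drop in luminescence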
# [4] = non-specific cell cytotoxicity, dose response, cytotoxicity control for PAX8 inhibitor project, plate reader, dry powder samples (AID 743021); assay type: functional, cell-based
# [5] = NIH:OVCAR-3 ovarian cancer cell cytotoxicity, dose response, PAX8 inhibitor project, plate reader, dry powder samples (AID 743044); assay type: functional, cell-based
# [6] = inhibitors of HIV Env-driven cell fusion, dose response, cherry-pick (AID 652057); assay type: functional, cell-based
# [7] = target: Paired box protein Pax-8 (Homo sapiens, UniProt Q06710); experiment: inhibitors of PAX8-driven TPO luciferase reporter, dose response, RMG-I cells, cherry-pick (AID 687027); assay type: functional, cell-based;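 also: luciferase reporter driven by Pax8 target thyroperoxidase promoter measured by SteadyGlo luminescence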
# Paired box protein Pax-8, sequence (Q06710 whole entry): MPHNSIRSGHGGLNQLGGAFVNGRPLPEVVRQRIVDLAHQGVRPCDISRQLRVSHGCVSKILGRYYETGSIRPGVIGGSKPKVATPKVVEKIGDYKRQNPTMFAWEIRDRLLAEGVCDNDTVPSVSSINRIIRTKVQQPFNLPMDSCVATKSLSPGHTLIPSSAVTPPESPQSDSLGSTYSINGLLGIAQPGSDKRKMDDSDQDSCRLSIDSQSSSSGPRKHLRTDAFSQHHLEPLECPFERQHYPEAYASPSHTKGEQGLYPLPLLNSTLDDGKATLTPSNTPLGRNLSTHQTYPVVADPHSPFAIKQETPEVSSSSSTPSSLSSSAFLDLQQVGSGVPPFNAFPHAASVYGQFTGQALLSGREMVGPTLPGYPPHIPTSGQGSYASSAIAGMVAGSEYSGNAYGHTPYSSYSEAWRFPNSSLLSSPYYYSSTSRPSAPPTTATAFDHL
# [8] = target: T1, Bifunctional protein GlmU (Mycobacterium tuberculosis, UniProt P9WMN3); experiment: Inhibitors of Mycobacterial Glucosamine-1-phosphate acetyl transferase (GlmU). Secondary screen.; design: species or system Mycobacterium tuberculosis H37Rv
# T1 sequence (P9WMN3 whole entry): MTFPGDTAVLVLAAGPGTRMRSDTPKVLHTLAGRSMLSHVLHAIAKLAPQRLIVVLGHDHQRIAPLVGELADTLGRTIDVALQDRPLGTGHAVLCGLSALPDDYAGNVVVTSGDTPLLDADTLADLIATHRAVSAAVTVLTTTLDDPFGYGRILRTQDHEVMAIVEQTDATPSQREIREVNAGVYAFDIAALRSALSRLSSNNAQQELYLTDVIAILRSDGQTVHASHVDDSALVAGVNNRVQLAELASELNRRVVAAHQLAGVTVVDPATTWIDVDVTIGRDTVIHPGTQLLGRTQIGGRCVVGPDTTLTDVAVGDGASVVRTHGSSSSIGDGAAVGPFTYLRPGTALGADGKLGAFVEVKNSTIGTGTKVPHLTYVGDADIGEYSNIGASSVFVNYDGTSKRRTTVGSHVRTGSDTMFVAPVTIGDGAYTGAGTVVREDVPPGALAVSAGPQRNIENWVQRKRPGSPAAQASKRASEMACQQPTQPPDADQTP
# [9] = HeLa 4N DNA content increase, dose response, cell-based, IC50 (AID 1117351); assay type: functional
# [10] = HeLa 2N DNA content increase, dose response, cell-based, IC50 (AID 1117349); assay type: functional
# [11] = target: T2, Caspase-6 (Homo sapiens, UniProt P55212); experiment: human caspase-6 inhibitors, dose response, biochemical, VEID-R110 fluorescence, cherry-pick (AID 720632)
# T2 sequence (P55212 whole entry): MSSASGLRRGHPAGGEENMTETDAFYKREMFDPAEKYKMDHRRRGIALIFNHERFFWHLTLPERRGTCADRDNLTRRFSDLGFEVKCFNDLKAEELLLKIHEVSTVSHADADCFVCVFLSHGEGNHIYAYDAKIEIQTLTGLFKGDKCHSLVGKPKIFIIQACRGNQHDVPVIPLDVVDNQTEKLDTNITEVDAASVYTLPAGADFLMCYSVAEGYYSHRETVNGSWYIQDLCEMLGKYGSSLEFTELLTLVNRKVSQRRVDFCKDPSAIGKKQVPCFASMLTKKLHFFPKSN
# Kallikrein-7, sequence (P49862 whole entry): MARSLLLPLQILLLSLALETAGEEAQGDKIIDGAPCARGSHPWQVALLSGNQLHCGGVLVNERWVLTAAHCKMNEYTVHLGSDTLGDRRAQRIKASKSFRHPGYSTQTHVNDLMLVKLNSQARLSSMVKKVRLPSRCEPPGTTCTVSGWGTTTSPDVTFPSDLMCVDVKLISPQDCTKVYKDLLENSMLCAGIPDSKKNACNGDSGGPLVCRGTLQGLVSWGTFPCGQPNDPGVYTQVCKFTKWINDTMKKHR
# Induced myeloid leukemia cell differentiation protein Mcl-1, sequence (Q07820 whole entry, the tested form may be a part): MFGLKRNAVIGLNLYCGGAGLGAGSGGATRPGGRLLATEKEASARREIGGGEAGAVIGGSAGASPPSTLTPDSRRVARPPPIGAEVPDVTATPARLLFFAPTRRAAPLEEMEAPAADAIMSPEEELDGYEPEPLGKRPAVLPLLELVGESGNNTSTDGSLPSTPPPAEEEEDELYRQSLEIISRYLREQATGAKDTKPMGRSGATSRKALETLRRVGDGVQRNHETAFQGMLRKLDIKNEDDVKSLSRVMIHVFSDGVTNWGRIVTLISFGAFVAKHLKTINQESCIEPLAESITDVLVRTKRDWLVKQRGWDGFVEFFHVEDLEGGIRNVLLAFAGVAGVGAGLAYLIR
compound,measurement,setting,value
Cc1ccc(-c2cc(C(=O)OCC(=O)N(C)C3CCS(=O)(=O)C3)c3ccccc3n2)o1 (stereo unspecified),EC50,[1],6.97 µM (active)
same,IC50,[2],5.12 µM (active)
COc1ccccc1C#Cc1ccc2c(c1)O[C@H](CN(C)Cc1ccncc1)[C@@H](C)CN([C@@H](C)CO)S2(=O)=O,AC50,[3],25.9 µM (active)
same,AC50,[4],61.5 µM (active)
same,AC50,[5],57.8 µM (active)
same,AC50,[6],38.1 µM (active)
same,AC50,[7],10.9 µM (active)
Cc1ccc(OCC(=O)N/N=C\c2ccc(-c3cccc(C(=O)O)c3)o2)c(C)c1,IC50,[8],137 µM (active)
CCCCCCCCCCCCNCCNCCNCC(=O)O [DODICIN],IC50,[9],> 10 µM (inactive)
same,IC50,[10],> 10 µM (inactive)
O=C(CSc1ccsc1[N+](=O)[O-])NCc1ccco1,AC50,[11],9.2 µM (active)
